Assay results: ChEMBL document CHEMBL4811256, “Synthesis and evaluation of multi-target-directed ligands with BACE-1 inhibitory and Nrf2 agonist activities as potential agents against Alzheimer's disease” (Eur J Med Chem, 2021)
Active and inactive are the calls of the source. The rule behind the calls is not given here.

Assays:
[1] = Glutathione peroxidase-like activity in pH 7.5 potassium phosphate buffer assessed as catalytic reduction of H2O2 by measuring initial velocity at 25 degreeC using GSH in presence of NADPH by UV absorbance analysis (reference value: 30.41+/- 2.06 microM/min); type: functional
PC-12 [2] = test: Cytotoxicity against rat PC-12 cells at 25 uM incubated for 24 hrs by MTT assay; type: cell-based; settings: pc-12, 24 h
PC-12 [3] = test: Cytoprotective activity against H2O2- induced cell death in rat PC-12 cells assessed as increase in viable cells pretreated for 12 hrs followed by H2O2 challenge by MTT assay; type: functional, cell-based; settings: dose 2.5-10 µM
PC-12 [4] = test: Cytoprotective activity against H2O2- induced cell death in rat PC-12 cells assessed as increase in viable cells at 10 uM pretreated for 12 hrs followed by H2O2 challenge by MTT assay relative to control; type: functional
PC-12 [5] = test: Protection against 6-OHDA-induced ROS accumulation in rat PC-12 cells assessed as intracellular ROS level by measuring mean fluorescence intensity pretreated for 12 hrs followed by 6-OHDA challenge by DCFH-DA staining based flow cytometry; type: functional, cell-based; settings: dose 2.5-10 µM
PC-12 [6] = test: Protection against H2O2-induced ROS accumulation in rat PC-12 cells assessed as intracellular ROS level by measuring mean fluorescence intensity pretreated for 12 hrs followed by H2O2 challenge by DCFH-DA staining based flow cytometry; type: functional, cell-based; settings: dose 2.5-10 µM
PC-12 [7] = test: Prevention of 6-OHDA-induced calcium overload in rat PC-12 cells assessed as reduction in intracellular free calcium pretreated with compound for 12 hrs followed by 6-OHDA challenge by Fluo-3AM based fluorescence assay; type: functional, cell-based; settings: dose 2.5-10 µM
PC-12 [8] = test: Protection against 6-OHDA-induced mitochondrial dysfunction in rat PC-12 cells assessed as change in mitochondrial membrane potential at 5 uM pretreated with compound for 12 hrs followed by 6-OHDA challenge by JC-1 staining based flow cytometry (reference value: 56 %); type: functional
PC-12 [9] = test: Protection against H2O2-induced apoptosis in rat PC-12 cells assessed as viable cells at 5 uM pretreated for 12 hrs followed by H2O2 challenge by annexin V FITC/propidium iodide staining based flow cytometry (reference value: 73.3 %); type: functional; settings: read-out: Activity
PC-12 [10] = test: Protection against H2O2-induced apoptosis in rat PC-12 cells assessed as late apoptic cells at 5 uM pretreated for 12 hrs followed by H2O2 challenge by annexin V FITC/propidium iodide staining based flow cytometry (reference value: 20.8 %); type: functional
PC-12 [11] = test: Protection against H2O2-induced apoptosis in rat PC-12 cells assessed as necrotic cells at 5 uM pretreated for 12 hrs followed by H2O2 challenge by annexin V FITC/propidium iodide staining based flow cytometry (reference value: 3.7 %); type: functional
PC-12 [12] = test: Protection against H2O2-induced apoptosis in rat PC-12 cells assessed as early apoptic cells at 10 uM pretreated for 12 hrs followed by H2O2 challenge by annexin V FITC/propidium iodide staining based flow cytometry (reference value: 2.2 %); type: functional
PC-12 [13] = test: Protection against 6-OHDA-induced apoptosis in rat PC-12 cells assessed as viable cells at 2.5 uM pretreated for 12 hrs followed by 6-OHDA challenge by annexin V FITC/propidium iodide staining based flow cytometry (reference value: 76.7 %); type: functional; settings: read-out: Activity
PC-12 [14] = test: Protection against 6-OHDA-induced apoptosis in rat PC-12 cells assessed as early apoptotic cells at 2.5 uM pretreated for 12 hrs followed by 6-OHDA challenge by annexin V FITC/propidium iodide staining based flow cytometry (reference value: 2.4 %); type: functional
PC-12 [15] = test: Protection against 6-OHDA-induced apoptosis in rat PC-12 cells assessed as necrotic cells at 2.5 uM pretreated for 12 hrs followed by 6-OHDA challenge by annexin V FITC/propidium iodide staining based flow cytometry (reference value: 3.7 %); type: functional
PC-12 [16] = test: Protection against 6-OHDA-induced apoptosis in rat PC-12 cells assessed as necrotic cells at 5 uM pretreated for 12 hrs followed by 6-OHDA challenge by annexin V FITC/propidium iodide staining based flow cytometry (reference value: 3.7 %); type: functional
PC-12 [17] = test: Protection against 6-OHDA-induced apoptosis in rat PC-12 cells assessed as cell rescue pretreated for 12 hrs followed by 6-OHDA challenge by Hoechst 33342 staining based confocal microscopic analysis; type: functional; settings: dose 2.5-10 µM
PC-12 [18] = test: Cytoprotective activity against H2O2-induced oxidative stress in rat PC-12 cells assessed as decrease in cell death at 10 uM pretreated for 12 hrs followed by H2O2 challenge by MTT assay; type: functional, cell-based
PC-12 [19] = test: Cytoprotective activity against H2O2-induced oxidative stress in rat PC-12 cells assessed as decrease in cell death at 10 uM pretreated with brusatol for 1 hr followed by compound treatment for 12 hrs and subsequent H2O2 challenge by MTT assay; type: functional, cell-based
PC-12 [20] = test: Cytoprotective activity against 6-OHDA-induced oxidative stress in rat PC-12 cells assessed as decrease in cell death at 10 uM pretreated with brusatol for 1 hr followed by compound treatment for 12 hrs and subsequent 6-OHDA challenge by MTT assay; type: functional, cell-based
PC-12 [21] = test: Activation of Keap1-Nrf2-ARE pathway in rat PC-12 assessed as upregulation of NQO1 protein expression measured after 12 hrs by Western blot analysis; settings: filed as activator, dose 2.5-10 µM
PC-12 [22] = test: Activation of Keap1-Nrf2-ARE pathway in rat PC-12 assessed as upregulation of GCLM protein expression measured after 12 hrs by Western blot analysis; settings: filed as activator, dose 2.5-10 µM
PC-12 [23] = test: Activation of Keap1-Nrf2-ARE pathway in rat PC-12 assessed as upregulation of HO-1 protein expression at 10 uM measured after 6 to 24 hrs by Western blot analysis; settings: filed as activator, time 6-24 hrs
[24] = biological target: T1, Nuclear factor erythroid 2-related factor 2 (Mus musculus) (UniProt Q60795); test: Activation of Nrf2 in mouse BV-2 cells assessed as upregulation of NQO1 protein expression after 24 hrs by Western blot analysis; type: cell-based; settings: filed as activator, dose 2.5-10 µM
T1 sequence (whole entry): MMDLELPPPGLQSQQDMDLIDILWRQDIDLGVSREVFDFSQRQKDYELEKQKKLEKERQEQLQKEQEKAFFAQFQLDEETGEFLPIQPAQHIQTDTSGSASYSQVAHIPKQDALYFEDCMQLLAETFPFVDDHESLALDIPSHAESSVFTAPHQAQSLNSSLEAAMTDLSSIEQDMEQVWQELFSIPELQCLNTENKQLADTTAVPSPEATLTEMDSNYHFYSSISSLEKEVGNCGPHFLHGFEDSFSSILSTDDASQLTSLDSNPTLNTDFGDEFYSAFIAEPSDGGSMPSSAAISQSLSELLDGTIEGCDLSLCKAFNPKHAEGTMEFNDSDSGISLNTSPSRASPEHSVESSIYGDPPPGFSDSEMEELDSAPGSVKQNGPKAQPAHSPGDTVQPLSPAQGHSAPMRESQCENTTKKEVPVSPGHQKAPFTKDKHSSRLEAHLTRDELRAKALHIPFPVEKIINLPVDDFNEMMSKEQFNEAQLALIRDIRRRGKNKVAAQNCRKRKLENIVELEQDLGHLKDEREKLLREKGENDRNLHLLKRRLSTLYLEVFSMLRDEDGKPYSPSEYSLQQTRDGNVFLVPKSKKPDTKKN

in vitro = settings: PAMPA

Question: Which results are given for `CN1C(N)=N[C@](C)(c2cc(-n3[se]c4cc(F)ccc4c3=O)ccc2F)CS1(=O)=O`?
Answer: V0 [1]: 183 µM/min; Activity (PC-12 [2]): Non-Toxic; Activity (PC-12 [3]): Dose-Dependent Effect; Activity (PC-12 [4]): 80%; Activity (PC-12 [5]): Dose-Dependent Effect; Activity (PC-12 [6]): Dose-Dependent Effect; Activity (PC-12 [7]): Dose-Dependent Effect; Activity (PC-12 [8]): 64.8%; viability at 5 µM (PC-12 [9]): 89%; Activity (PC-12 [10]): 8.1%; Activity (PC-12 [11]): 1.3%; Activity (PC-12 [12]): 2.1%; viability at 2.5 µM (PC-12 [13]): 79.8%; Activity (PC-12 [14]): 2%; Activity (PC-12 [15]): 3.3%; Activity (PC-12 [16]): 2.3%; Activity (PC-12 [17]): Dose-Dependent Effect; Activity (PC-12 [18]): Active; Activity (PC-12 [19]): inactive; Activity (PC-12 [20]): inactive; Activity (PC-12 [21]): Active; Activity (PC-12 [22]): Active; Activity (PC-12 [23]): Active; Activity [24]: Dose-Dependent Effect; Papp at 16 h (in vitro): 16 ×10⁻⁶ cm/s
